Laboratory results from patent US20240294489A1 (Captor Therapeutics S.A., priority 2020, published 2024).

Key:
Type in all cases: cell-based
H929 cells = assay: Cell viability CTG assay, H929; set-up: key to Geomean absolute IC50 by molecule, 72 H: Inactive represents IC50 > 50 μM; C represents 50 μM ≥ IC50 > 5 μM; settings: H929, 72 h, 0.001-50 μM
Summary of the method: (§1)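 Cells exposed to compound at 0.25% v/v DMSO for 72 h (37° C., 5% CO2). ATP quantified by CellTiter-Glo luminescence, normalized to DMSO control. Absolute IC50 (T/C=50%) by non-linear regression on duplicate means; geometric mean used for averages.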

LP-1 = assay: Cell viability, additional cell lines (CellTiter-Glo), LP-1; settings: Homo sapiens, LP-1, 72 h; read-out: Absolute IC50
Protocol: (§2) Tumor cells are grown at 37° C. in a humidified atmosphere with 5% CO2 in RPMI 1640 medium, supplemented with 10% (v/v) fetal calf serum and 50 μg/ml gentamicin for up to 20 passages, and are passaged once or twice weekly.
(§3) Cells are harvested from exponential phase cultures, counted and plated in 96 well flat-bottom microtiter plates at a cell density depending on the cell line's growth rate (4,000-20,000 cells/well depending on the cell line's growth rate, up to 60,000 for hematological cancer cell lines) in RPMI 1640 medium supplemented with 10% (v/v) fetal calf serum and 50 μg/ml gentamicin (140 μl/well). Cultures are incubated at 37° C. and 5% CO2 in a humidified atmosphere. After 24 h, 10 μl of test compounds or control medium are added and left on the cells for another 72 h. Compounds are serially diluted in DMSO, transferred in cell culture medium, and added to the assay plates by using a Tecan Freedom EVO 200 robotic platform. The DMSO concentration is kept constant at 0.3% v/v across the assay plate. Viability of cells is quantified by the CellTiter-Glo® cell viability assay (Promega G8462). After incubation of cells, 100 μl of CellTiter-Glo® One Solution Assay reagent are added to each well. Plates are shaken for 2 minutes to induce cell lysis and incubated for 20 minutes prior to reading luminescence (LU) by using the EnVision® Xcite multilabel plate reader (Perkin Elmer). […]

EOL-1 = assay: Cell viability, additional cell lines (CellTiter-Glo), EOL-1; settings: Homo sapiens, EOL1; EOL-1, 72 h; read-out: Absolute IC50
Protocol: as §2, §3

IM-9 = assay: Cell viability, additional cell lines (CellTiter-Glo), IM-9; settings: Homo sapiens, IM-9, 72 h; read-out: Absolute IC50
Protocol: as §2, §3

KG-1a = assay: Cell viability, additional cell lines (CellTiter-Glo), KG-1a; settings: Homo sapiens, 72 h
Protocol: as §2, §3

HL-60 = assay: Cell viability, additional cell lines (CellTiter-Glo), HL-60; settings: Homo sapiens, HL-60, 72 h; read-out: Absolute IC50
Protocol: as §2, §3

KG-1 = assay: Cell viability, additional cell lines (CellTiter-Glo), KG-1; settings: Homo sapiens, KG-1, 72 h
Protocol: as §2, §3

OCI-AML2 = assay: Cell viability, additional cell lines (CellTiter-Glo), OCI-AML2; settings: Homo sapiens, OCI-AML2, 72 h; read-out: Absolute IC50
Protocol: as §2, §3

SALL4 = target: T1, SALL4 (Homo sapiens, UniProt Q96SW2+Q9UJQ4); assay: SALL4 degradation assay, Kelly cell line (Western blot densitometry); settings: Kelly cells, 100 nM, 24 h, average from n ≥ 2 experiments
T1 construct: SALL4 degradation in the Kelly cell line was investigated; endogenous in cells; host or cells: Kelly
T1 sequence (Q9UJQ4 whole entry): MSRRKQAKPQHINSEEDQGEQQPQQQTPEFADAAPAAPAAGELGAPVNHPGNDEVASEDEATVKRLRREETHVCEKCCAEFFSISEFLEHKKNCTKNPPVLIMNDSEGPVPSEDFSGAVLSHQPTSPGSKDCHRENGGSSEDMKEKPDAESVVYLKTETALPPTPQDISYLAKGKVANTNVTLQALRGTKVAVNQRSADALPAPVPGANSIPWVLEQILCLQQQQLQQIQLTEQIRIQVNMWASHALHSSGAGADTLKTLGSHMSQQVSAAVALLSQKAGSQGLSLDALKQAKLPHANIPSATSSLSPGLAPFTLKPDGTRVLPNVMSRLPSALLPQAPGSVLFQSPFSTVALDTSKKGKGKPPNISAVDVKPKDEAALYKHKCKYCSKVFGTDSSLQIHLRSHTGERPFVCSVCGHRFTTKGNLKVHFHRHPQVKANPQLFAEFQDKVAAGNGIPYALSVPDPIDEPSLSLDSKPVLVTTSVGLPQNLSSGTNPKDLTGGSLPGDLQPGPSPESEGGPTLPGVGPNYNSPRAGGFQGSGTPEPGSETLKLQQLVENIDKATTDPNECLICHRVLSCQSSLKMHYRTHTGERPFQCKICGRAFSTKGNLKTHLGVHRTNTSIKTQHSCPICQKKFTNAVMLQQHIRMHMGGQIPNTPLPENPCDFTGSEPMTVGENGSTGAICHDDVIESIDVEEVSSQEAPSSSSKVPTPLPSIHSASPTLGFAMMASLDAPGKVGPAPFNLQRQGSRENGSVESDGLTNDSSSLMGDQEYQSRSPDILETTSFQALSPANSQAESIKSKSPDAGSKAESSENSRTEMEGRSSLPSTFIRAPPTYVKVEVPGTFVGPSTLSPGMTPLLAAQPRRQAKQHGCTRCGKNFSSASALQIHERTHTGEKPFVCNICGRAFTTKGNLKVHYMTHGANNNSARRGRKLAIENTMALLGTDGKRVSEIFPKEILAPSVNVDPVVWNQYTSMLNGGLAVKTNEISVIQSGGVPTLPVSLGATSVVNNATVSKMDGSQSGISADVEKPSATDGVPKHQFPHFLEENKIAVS
T1 sequence (Q96SW2 whole entry): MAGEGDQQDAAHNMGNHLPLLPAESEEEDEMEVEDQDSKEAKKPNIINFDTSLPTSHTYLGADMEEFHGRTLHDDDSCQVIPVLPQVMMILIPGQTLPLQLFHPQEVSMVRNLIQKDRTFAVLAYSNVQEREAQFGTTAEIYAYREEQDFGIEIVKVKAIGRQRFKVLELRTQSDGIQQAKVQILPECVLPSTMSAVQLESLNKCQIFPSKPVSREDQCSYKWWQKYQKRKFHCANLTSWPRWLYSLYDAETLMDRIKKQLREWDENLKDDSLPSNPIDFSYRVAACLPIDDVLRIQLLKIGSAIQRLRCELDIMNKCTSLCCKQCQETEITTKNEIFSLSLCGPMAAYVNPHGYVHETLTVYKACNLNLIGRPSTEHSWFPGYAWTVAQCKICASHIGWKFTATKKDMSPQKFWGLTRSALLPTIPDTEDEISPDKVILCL
T1 sequence (Q16531 whole entry partner): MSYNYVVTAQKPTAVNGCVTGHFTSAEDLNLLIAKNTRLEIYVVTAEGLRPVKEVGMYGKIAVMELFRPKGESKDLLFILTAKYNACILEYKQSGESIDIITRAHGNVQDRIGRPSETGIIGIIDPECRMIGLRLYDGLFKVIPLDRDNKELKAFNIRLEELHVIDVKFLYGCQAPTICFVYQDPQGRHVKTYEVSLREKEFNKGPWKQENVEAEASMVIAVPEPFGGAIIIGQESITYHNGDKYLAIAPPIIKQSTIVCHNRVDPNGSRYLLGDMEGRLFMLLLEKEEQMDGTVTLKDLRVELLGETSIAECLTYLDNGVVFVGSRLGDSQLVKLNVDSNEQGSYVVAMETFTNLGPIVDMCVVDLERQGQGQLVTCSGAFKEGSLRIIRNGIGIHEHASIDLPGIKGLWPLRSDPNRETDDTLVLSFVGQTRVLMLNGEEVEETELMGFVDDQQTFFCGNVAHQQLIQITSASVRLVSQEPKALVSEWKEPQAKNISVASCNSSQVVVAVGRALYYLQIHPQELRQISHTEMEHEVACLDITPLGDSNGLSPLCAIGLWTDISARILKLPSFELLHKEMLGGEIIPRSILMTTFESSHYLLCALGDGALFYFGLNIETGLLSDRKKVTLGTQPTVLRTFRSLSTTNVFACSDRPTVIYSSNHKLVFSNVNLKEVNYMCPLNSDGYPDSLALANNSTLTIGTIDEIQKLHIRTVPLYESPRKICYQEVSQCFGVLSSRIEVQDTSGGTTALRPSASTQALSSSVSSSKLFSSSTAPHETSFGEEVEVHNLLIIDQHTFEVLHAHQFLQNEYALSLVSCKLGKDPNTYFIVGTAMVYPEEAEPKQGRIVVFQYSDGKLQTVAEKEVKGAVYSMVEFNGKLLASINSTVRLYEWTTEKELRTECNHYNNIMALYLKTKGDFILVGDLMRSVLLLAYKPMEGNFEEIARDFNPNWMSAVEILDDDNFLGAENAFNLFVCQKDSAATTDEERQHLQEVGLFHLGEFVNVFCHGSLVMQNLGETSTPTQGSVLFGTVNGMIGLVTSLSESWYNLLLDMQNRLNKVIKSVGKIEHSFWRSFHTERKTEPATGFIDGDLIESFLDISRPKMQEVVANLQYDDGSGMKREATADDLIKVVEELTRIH
Protocol: Cells were seeded on 6- or 12-well plates, and the compounds to be tested were added at the desired concentration range. […] After 24 h incubation (37° C., 5% CO2), cells were harvested, washed and cell lysates were prepared using RIPA lysis buffer. The amount of protein was determined via BCA assay, and the appropriate quantity was then loaded on the precast gel for the protein separation. After primary and secondary Ab staining, the membranes were washed and signals developed. The densitometry analysis was implemented to obtain the numeric values used later in the protein level evaluation process.

Kelly cells = assay: Cell survival clonogenic assay, Kelly; settings: 0.1-10 μM, crystal violet staining after 9-10 days
Protocol: To determine the ability of a single cell to form a colony (defined as a cluster of at least 50 cells), Kelly and Hep3B cells were maintained in RPM11640 (Kelly) or EMEM (Hep3B) medium, supplemented with penicillin/streptomycin and 10% FBS. The cells were counted and seeded on the 6-well plates, at the density of 1×10^3 cells per well, the compounds to be tested were added at the desired concentration range, and the cells were cultured at 37° C./5% CO2. After colony formation (9-10 days), the cells were washed and treated with 6.0% glutaraldehyde and 0.5% crystal violet mix for 30 min., followed by rinsing with water and drying at room temperature (RT).

U-937 = assay: Cell viability, additional cell lines (CellTiter-Glo), U-937; settings: Homo sapiens, U-937, 72 h; read-out: Absolute IC50
Protocol: as §2, §3

Hep3B cells = assay: Cell viability CTG assay, Hep3B; settings: Homo sapiens, 72 h, 0.001-50 μM, read-out: Hep3B Geomean absolute IC50 by molecule, 72 H
Summary of the method: as §1

SU-DHL-1 = assay: Cell viability, additional cell lines (CellTiter-Glo), SU-DHL-1; settings: Homo sapiens, SU-DHL-1, 72 h; read-out: Absolute IC50
Protocol: as §2, §3

[1] = 9.5 μM, read-out: Test/Control viability at 9.5 μM

Geomean absolute IC50 by molecule, 72 H (H929 cells): Inactive
IC50 (HL-60): > 30 µM
IC50 (OCI-AML2): > 30 µM
% of SALL4 protein reduction (SALL4): >80%
IC50 (U-937): > 30 µM
IC50 (Hep3B cells): ≤ 100 nM
IC50 (SU-DHL-1): > 30 µM
SMILES: NCc1ccc2c(c1)CN(C1CCC(=O)NC1=O)C2=O (stereo not drawn) [Compound 1, 3-(5-(aminomethyl)-1-oxoisoindolin-2-yl)piperidine-2,6-dione]
IC50 (LP-1): > 30 µM
IC50 (EOL-1): > 30 µM
IC50 (IM-9): > 30 µM
viability at 9.5 µM (KG-1a; [1]): ≤ 30%
IC50 (KG-1a; read-out: Absolute IC50): ≤ 100 nM
IC50 (KG-1; read-out: Absolute IC50): ≤ 100 nM
viability at 9.5 µM (KG-1; [1]): ≤ 30%
survival of the cells (colony formation) (Kelly cells): in most cases inhibited
